Results as given in patent US4616025A, “Thiazolidine derivatives, process for the preparation and pharmaceutical compositions thereof” (Richter Gedeon Vegyeszeti Gyar RT, priority 1983, dated 1986).
Entries after “also recorded” stand apart in the source; their conditions may differ.

Assays:
gastric acid secretion = assay: Gastric acid secretion in Shay-rats (pylorus ligation, 4 hours); assay type: in vivo, rat (female H-Wistar)
Experimental: The method was first described by Shay et al in 1945 (Gastroenterology 56, 5-13, 1945). Female H-Wistar rats (120-150 g) were gasted for 24 hours. Water was allowed ad libitum. The pylorus of the animals was ligated in slight ether narcosis. […] 4 hours after treatment the animals were killed by an overdose of ether. The stomach was excised and cut along the large curvature. The volume and the pH of the contents were determined, in certain cases the HCl production was determined by titration.

[1] = tested on: aspirin-induced gastric ulcers; assay: Aspirin-induced stomach ulcer; assay type: in vivo, rat (female H-Wistar)
Experimental: It is known that the non-steroidal antiinflammatory agents induce gastointestinal ulceration to certain extent (Drugs and Peptic Ulcer, Ed. Pfeiffer, CRC Press, New York 1982). To test anti-ulcer compounds the so-called Aspirin-induced ulcer model is widely used. Female H-Wistar rats weighing 120-150 g each were fasted for 24 hours. Water was allowed ad libitum. The stomach ulcer was induced by oral administration of 100 mg/kg Aspirin (in Tween 80 suspension). The test drug was given simultaneously with the administration of Aspirin, orally. The animals were killed by an overdose of ether, 4 hours after treatment. The stomach was excised and cut along the large curvature. The contents were slightly washed and the haemorrhagic lesions in the glandular surface were counted. When evaluating the test results, the number of ulcers per stomach or the ulcer-free animals were determined.

[2] = tested on: indomethacin-induced intestinal ulceration; assay: Indomethacin-induced fatal intestinal ulceration (15 mg/kg p.o.), inflation technique; assay type: in vivo, rat (female H-Wistar)
Experimental: Indomethacin-induced intestinal ulceration
Of the non-steroidal antiinflammatory agents indomethacin has not only a gastric-ulcer inducing side-effect but may also cause serious intestinal ulceration. Depending on the dose, the intestinal ulceration may be fatal, peritonitis due to intestinal perforations kills the animals.
(a) Indomethacin-induced fatal intestinal ulceration
Non-fasted, female H-Winstar rats, weighing 120-150 g each were treated orally with a 15 mg/kg dose of indomethacin (in Tween 80 suspension). […] Under these conditions it requires about 48 to 72 hours to detect intenstinal ulceration.
(§1) To evaluate the development of intestinal ulcers the so-called inflation technique by Ezer and Szporny (J. Pharm. Pharmacol. 27, 866 (1975)) was employed. By this method the progress of ulceration can be monitored quantitatively. The tensile strength of the intestinal wall expressed in mmHg weakens gradually parallel with the progress of ulceration.

[3] = tested on: indomethacin-induced non-fatal intestinal ulceration; assay: Indomethacin-induced (7.5 mg/kg p.o.) non-fatal intestinal ulceration, post-treatment, inflation technique; assay type: in vivo, rat (H-Wistar)
Experimental: as §1
(b) Indomethacin-induced non-fatal ulceration
Non-fasted H-Wistar rats weighing 120 to 150 g each were administered 7.5 mg/kg indomethacin orally, to induce non-fatal intestinal ulceration. 4, 24 and 48 hours, respectively, after the indomethacin treatment the animals were treated with the test material orally. The animals were killed 24 hours after the last treatment and 72 hours after the ulcer-induction performed with indomethacin, respectively. Ulceration was evaluated by the inflation technique.

[4] = tested on: gastric necrosis induced by absolute alcohol; assay: Gastric necrosis induced by absolute alcohol (cytoprotection); assay type: in vivo, rat (female H-Wistar)
Experimental: Gastric necrosis induced by absolute alcohol
Water was allowed ad libitum. The compounds to be tested were administered orally, 30 minutes prior to the administration of 0.5 ml of ethanol/100 g of body weight through a canula. Two hours later the animals were killed by overdosing ether. Stomachs were removed and opened along the major curvature. […] Degree of the cytoprotection was expressed in % related to the control.

Toxicological studies = assay: Toxicological studies
Experimental: For intravenous administration the compound was dissolved in dimethyl formamide.

[5] = tested on: gastric ulcers induced by indomethacin; assay: Gastric ulcers induced by a 20 mg/kg oral dose of indomethacin; assay type: in vivo; conditions: 20 mg/kg oral dose of indomethacin
ulcer = assay: Anti-ulcer activity in general (pharmacological tests); assay type: in vivo; conditions: compared with cimetidine
Description: The pharmacological activity of the new compounds has been investigated by the following methods: […]

[6] = 10 mg/kg i.p., 15 min. prior to operation, n=5
[7] = 10 mg/kg s.c., 15 min prior to operation, n=5
[8] = 10 mg/kg, 15 min prior to operation, n=5
[9] = Aspirin 100 + 1.5 mg/kg p.o., n=10
[10] = Aspirin 100 + 3.0 mg/kg p.o., n=17
[11] = Aspirin 100 + 6.0 mg/kg p.o., n=17
[12] = Aspirin 100 + 12.0 mg/kg p.o., n=14
[13] = Aspirin 100 + 25.0 mg/kg p.o., n=17
[14] = indomethacin 15 + 15 mg/kg p.o.
[15] = indomethacin 15 + 25 mg/kg p.o.
[16] = indomethacin 15 + 50 mg/kg p.o.

## N#CN=C1SCCN1Cc1ccccc1 [Compound A, 3-Benzyl-2-cyanimino-thiazolidine]
Gastric acid secretion; 1.25 mg/kg i.p., n=5
  Acid secretion: 436 μmol HCl/100 g b.w.
Gastric acid secretion; 2.5 mg/kg i.p., n=10
  Acid secretion: 358 μmol HCl/100 g b.w.
  Inhibition of acid secretion: 17%
Gastric acid secretion; 5.0 mg/kg i.p., n=10
  Acid secretion: 301 μmol HCl/100 g b.w.
  Inhibition of acid secretion: 30%
Gastric acid secretion; [6]
  Gastric acid secretion (volume): 2.5 ml/100 g, b.w.
  Gastric acid secretion, pH: 3.7
  Gastric acid secretion, vol. inhibition: 42%
Gastric acid secretion; 10.0 mg/kg i.p., n=20
  Inhibition of acid secretion: 100%
Gastric acid secretion; [7]
  Gastric acid secretion (volume): 2.8 ml/100 g, b.w.
  Gastric acid secretion, pH: 1.5
  Gastric acid secretion, vol. inhibition: 35%
Gastric acid secretion; [8]
  Gastric acid secretion (volume): 2.3 ml/100 g, b.w.
  Gastric acid secretion, pH: 4.1
  Gastric acid secretion, vol. inhibition: 47%
Gastric acid secretion; 25.0 mg/kg i.p., n=5
  Inhibition of acid secretion: 100%
Gastric acid secretion; Rattus norvegicus, ip, 4 h, i.p., Shay rats, read-out: ED50, gastric acid secretion inhibition
  ED50: 5.3 mg/kg
Gastric acid secretion; Table 1, i.p.
  Gastric acid secretion decreasing effect, in words: dose-dependent gastric acid secretion decreasing effect
Gastric acid secretion; administered orally
  Gastric acid secretion inhibition on oral administration, in words: effectively inhibits the gastric acid secretion also when administered orally
Gastric acid secretion; comparison of i.p., s.c. and p.o. data
  Oral absorption: good oral absorption
[1]; [9]
  Number of ulcers/stomach: 9.5
  Ulcer inhibition: 40%
  Ulcer-free animals: 0%
[1]; [10]
  Number of ulcers/stomach: 6.8
  Ulcer inhibition: 57%
  Ulcer-free animals: 23%
[1]; [11]
  Number of ulcers/stomach: 4.7
  Ulcer inhibition: 71%
  Ulcer-free animals: 29%
[1]; [12]
  Number of ulcers/stomach: 2.2
  Ulcer inhibition: 86%
  Ulcer-free animals: 66%
[1]; [13]
  Number of ulcers/stomach: 2.3
  Ulcer inhibition: 85%
  Ulcer-free animals: 41%
[1]; Rattus norvegicus, po, 4 h, simultaneous administration
  ED50: 2.1 mg/kg
[1]; simultaneous administration, depending on the dose
  Aspirin-induced gastric ulceration, in words: inhibits the formation of the aspirin-induced gastric ulceration
[2]; Rattus norvegicus, po, simultaneous with indomethacin 15 mg/kg, read-out: ED100
  ED100: 50 mg/kg
[2]; [14]
  Intestinal wall resistency in % of normal: 52 % of normal
  T.s. of intestinal wall 72 hours after treatment: 120 ± 20 mm Hg
[2]; [15]
  Intestinal wall resistency in % of normal: 83 % of normal
  T.s. of intestinal wall 72 hours after treatment: 192 ± 18 mm Hg
[2]; [16]
  Intestinal wall resistency in % of normal: 97 % of normal
  T.s. of intestinal wall 72 hours after treatment: 225 ± 6 mm Hg
[2]; simultaneous administration, indomethacin 15 mg/kg p.o.
  Indomethacin-induced intestinal ulceration, in words: dose-dependent inhibiting effect; also recorded: inhibits the indomethacin-induced intestinal ulceration
[3]; 7.5 + 3 × 25 mg/kg p.o., 4, 24, 48 hours after indomethacin
  T.s. of intestinal wall 72 hours after indomethacin treatment: 176 ± 20 mm Hg
[3]; 7.5 + 3 × 50 mg/kg p.o., 4, 24, 48 hours after indomethacin
  T.s. of intestinal wall 72 hours after indomethacin treatment: 249 ± 4 mm Hg
[3]; post-treatment 4, 24 and 48 hours after indomethacin 7.5 mg/kg p.o.
  Non-fatal intestinal ulceration post-treatment, in words: can normalize the tensile strength of the intestine wall
[4]; 1.5 mg/kg p.o.
  Cytoprotection: 37%
  Length of average lesion: 52.5 ± 19 mm/stomach
[4]; 3.0 mg/kg p.o.
  Cytoprotection: 58%
  Length of average lesion: 34.8 ± 10 mm/stomach
[4]; 6.0 mg/kg p.o.
  Cytoprotection: 64%
  Length of average lesion: 29.9 ± 9 mm/stomach
[4]; 12.0 mg/kg p.o.
  Cytoprotection: 60%
  Length of average lesion: 32.9 ± 5 mm/stomach
[4]; 25.0 mg/kg p.o.
  Cytoprotection: 78%
  Length of average lesion: 18.0 ± 8 mm/stomach
[4]; Rattus norvegicus, po, 30 minutes prior to ethanol
  ED50: 2.8 mg/kg
[4]; rat, in vivo
  Absolute alcohol-induced gastric necrosis, in words: effective against the gastric necrosis induced by absolute alochol; also recorded: effective also in the absolute alcohol necrosis test
Toxicological studies; 100 mg/kg, route not given, within 3 days
  Sickness / death: sickness of the test animals but no death occurs
Toxicological studies; 250 mg/kg, within 2 weeks
  Death: no death is observed
Toxicological studies; 1500 mg/kg i.p.
  Time to death of the animals: ≤ 30 min
Toxicological studies; 1500 mg/kg oral
  Behavior and food consumption of animals: normal
Toxicological studies; 1500 mg/kg oral, in the next week
  Further deaths: no further deaths are observed
Toxicological studies; 1500 mg/kg oral, within 24 hours
  Death of animals within 24 hours: 3 animals out of 10
Toxicological studies; first toxicological studies
  Therapeutic index: high therapeutic index
[5]
  Indomethacin-induced gastric ulcers, in words: effectively inhibited
ulcer
  Spectrum of activity, in words: wider spectrum of activity than for example cimetidine
Solubility in water
  Solubility in water: insoluble in water
